Reference: article PMC4865820, “Branched Peptide, B2088, Disrupts the Supramolecular Organization of Lipopolysaccharides and Sensitizes the Gram-negative Bacteria” (Scientific Reports, 2016)
Positions of bridges follow the written chain, without caps; N, C: chain ends. Residues, ends and D or L forms follow the SMILES beside them. Chains are numbered I, II in the order given.

What was measured:
P. aeruginosa ATCC 27853 [1] = assay: microbe, parasite or virus in culture; format: cell-based; settings: ATCC 27853, 24 h
Description: (§1) MIC of each peptide was determined using the microdilution method in a 96 well microtitre plates (SPL Life Sciences Co., Ltd, Korea). Two-fold serial dilutions of each peptide in Mueller-Hinton Broth (MHB) was prepared from a 1 mg/ml stock solution of the peptide in the same broth, to obtain a final concentration in the range of 0.0976–50 μg/ml in each well. Bacterial suspensions (P. aeruginosa ATCC 27853, P. aeruginosa 4877, P. aeruginosa 23155, K. pneumoniae ATCC 10031 and K. pneumoniae 4299) were prepared by suspending the overnight cultured bacteria in saline and adjusting the inoculum to ~10^8 colony forming units (CFU) per ml. A further 150-fold dilution was then prepared in MHB to achieve a final cell density of 10^5–10^6 CFU/ml. In each well, 100 μl of inoculum was mixed with the equal volume of peptides at their 2× concentration. Positive and negative controls contained 200 μl of inoculum (without any peptide) and broth alone (no peptide/inoculum) respectively. Another negative control in which MHB containing 200 μl of peptide alone in its highest concentration tested (50 μg/ml) was also included to ensure that the optical density measured in the test wells was not due to turbidity of the peptides in solution. The 96 well polystyrene plates were then incubated at 37 °C for 24 h and the optical density at 600 nm (OD600) was measured every 30 min continuously using a TECAN microplate reader (TECAN Infinite 200, Austria). All the experiments were performed in two independent duplicates and the MIC was determined as the lowest peptide concentration in which no visible growth was observed.

[2] = test system: LPS (E. coli serotype 055:B5); assay: BODIPY TR cadaverine (BC) displacement assay with LPS; format: binding; settings: no unit in table; ED50 values in μM; 5 mM HEPES pH 7.4; duplicates; read-out: BC50 (LPS binding)
Excerpt: To investigate the interaction of B2088 with LPS, we performed the BODIPY TR cadaverine (BC) displacement assay reported by Wood et al.[22]. The probe binds to the lipid A part of the LPS with moderate affinity and can be displaced by putative LPS-binding molecules. The method was used to probe the affinity of polycationic molecules and LPS binding proteins. First, we determined the affinity of polymyxin B (PMB), a lipopeptide cyclic antibiotic which has a high affinity for LPS. […] Figure 1a,b show the concentration-dependent displacement of LPS/lipid A-bound BC upon addition of B2088. […] To confirm the importance of branching, we determined the BC50 for a linear retrodimer having the amino acid sequence, […] (Fig. 1d). The determined value was 2-fold higher (3.9 ± 0.1 μM) than that of B2088, confirming a weaker affinity of the linear peptide.
The BC displacement assay was used to determine the ability of each peptide to bind to LPS. The florescent probe, BODIPY TR cadaverine (BC) was purchased from Molecular Probes/ Invitrogen (USA). A stock solution containing 1 mg/ml of LPS (E. coli serotype 055:B5) was prepared in dimethyl sulfoxide (DMSO) and another stock solution containing 1 mg/ml of BC dye was prepared in 5 mM HEPES buffer (pH 7.4). The optimum saturation concentration of BC:LPS ratio was standardized following the protocol provided by Wood et al. (22). From the BC stock, 240 μl was mixed with 500 μl from the LPS stock solution in 5 mM HEPES buffer (pH 7.4) to prepare 20 ml of BC:LPS mixture. Two-fold serial dilutions of each peptide in 5 mM HEPES buffer (pH 7.4) was prepared from their 1 mg/ml stock solutions to obtain a final range of 0.02–25.6 μM. The BC:LPS mixture was added to 100 μl of each peptide congener in a 1:1 ratio in each well of a 96-well black Costar™ polystyrene microtitre plate (Corning Incorporated, NY, USA). The maximum fluorescence intensity (Fmax) was determined using a mixture containing 100 μl PMB (50 μg/ml) and 100 μl BC:LPS solution, as PMB is considered the ‘gold standard’ for LPS-sequestering agents. The minimum fluorescence intensity (F0) was measured using 200 μl of BC:LPS mixture to determine the background noise for this experiment. Fluorescence measurements for each peptide (F) were determined using a microplate reader (Model: TECAN Infinite 200, Austria) with excitation and emission wavelengths set at 580 nm and 620 nm respectively. The percentage of BC displacement was then calculated using the formula: […]
The experiments were performed in duplicates and the effective concentration required for 50% displacement of BC dye (ED50) from LPS with respect to PMB was determined by curve fitting using Graphpad Prism (CA, USA). A higher ED50 value for the peptide indicates a lower affinity for LPS.

P. aeruginosa 23155 = format: cell-based; settings: 23155, 24 h
Description: as §1

K. pneumoniae ATCC10031 = format: cell-based; settings: ATCC10031, 24 h
Description: as §1

P. aeruginosa ATCC 9027 = assay: Outer membrane permeability assay (NPN); format: cell-based; settings: no unit in table; Fig. S5 axis [Peptide], μM; 10 μM NPN, 5 mM HEPES pH 7.4, ex 355/em 405 nm; average of two titrations; read-out: PC50 (peptide concentration for half-maximal NPN intensity, OM permeability)
Description: The ability of each peptide to permeabilize the OM of Gram-negative organisms was determined using the hydrophobic fluorescent probe 1-N-phenylnaphthylamine (NPN) as previously reported. P. aeruginosa ATCC 9027 cells from an overnight MHB culture were harvested after centrifuging at 3000 rpm for 10 minutes. The pellet was washed twice, suspended in 5 mM HEPES (N- 2-hydroxyethylpiperazine-N’-2 ethanesulfonic acid) buffer (pH 7.4) and adjusted to an OD600 of 0.200. A suspension containing 600 μl of bacteria cells and 1 μl of a concentrated stock solution of NPN was mixed into a 10 mm stirred quartz cuvette so that the final concentration of the probe remained 10 μM. Aliquots containing 1 μl of each peptide in various concentrations (100, 50, 25, 15, 10, 5, 2.5 and 1 μg/ml) were added upon NPN dye stabilization. The fluorescence intensity was monitored using a Quanta Master spectrophotometer with a constant slit width of 0.5 nm, excitation and emission wavelengths set at 355 nm and 405 nm respectively. The peptide concentration required for half-maximal intensity (PC50) was determined by sigmoidal curve fitting using Graphpad Prism software. The experimental data is average of two independent titration experiments.

K. pneumonia 4299 = assay: microbe, parasite or virus in culture; format: cell-based, K. pneumoniae; settings: 24 h
Description: as §1

P. aeruginosa DR4877/07 = format: cell-based; settings: for Fractional inhibitory concentration of peptide/PMB, combination with Chloarm / Fractional inhibitory concentration of peptide/PMB, combination with Erythro / Fractional inhibitory concentration of peptide/PMB, combination with Levo / Fractional inhibitory concentration of peptide/PMB, combination with Tobra: first number in parenthesis; for Fractional inhibitory concentration of antibiotic, Chloarm combination / Fractional inhibitory concentration of antibiotic, Erythro combination / Fractional inhibitory concentration of antibiotic, Levo combination / Fractional inhibitory concentration of antibiotic, Tobra combination: second number in parenthesis
Description: (§2) The synergism between peptides with conventional antibiotics was evaluated using checkerboard assays. For a comparison polymyxin B (PMB) was also tested against each antibiotic. From their stock solutions, two-fold dilutions of each antibiotic and peptide to 1× MIC were prepared in MHB. 50 μl of each peptide concentration was added into the wells of a 96-well polystyrene plates (SPL Life Sciences Co. Ltd, Korea) in a horizontal orientation and the same volume of each antibiotic concentration were then added in a vertical orientation. Bacterial suspensions were prepared in MHB to yield final cell density of ~10^6 CFU/ml and 100 μl of bacterial suspension was mixed with each peptide-antibiotic combinations. This procedure was repeated for wells containing 200 μl of peptide alone and 200 μl of antibiotic alone in various concentrations. The positive and negative controls contained 200 μl of inoculum and MHB alone respectively. The plates were incubated at 37 °C for 24 hours and the optical density at 600 nm (OD600) was monitored as before. Fractional inhibitory concentration index (FICI) for all antibiotic- peptide combinations was calculated through the summation of (MIC of peptide in the combination/ MIC of peptide alone) and (MIC of antibiotics in combination/MIC of antibiotic alone). The experiments were performed in two independent duplicates and the combinations that gave the lowest FICI values was reported.

P. aeruginosa ATCC 27853 [3] = format: cell-based; settings: ATCC 27853; for Fractional inhibitory concentration of peptide/PMB, combination with Genta: first number in parenthesis; for Fractional inhibitory concentration of antibiotic, Genta combination: second number in parenthesis
Description: as §2

| Compound | Minimum Inhibitory Concentration against P. aeruginosa ATCC 27853 (P. aeruginosa ATCC 27853 [1]) | EC50 [2] | Minimum Inhibitory Concentration against P. aeruginosa 23155 (P. aeruginosa 23155) | Minimum Inhibitory Concentration against K. pneumoniae ATCC10031 (K. pneumoniae ATCC10031) | EC50 (P. aeruginosa ATCC 9027) | Minimum Inhibitory Concentration against K. pneumonia 4299 (K. pneumonia 4299) | Fractional inhibitory concentration of peptide/PMB, combination with Chloarm (P. aeruginosa DR4877/07) | Fractional inhibitory concentration of peptide/PMB, combination with Erythro (P. aeruginosa DR4877/07) | Fractional inhibitory concentration of peptide/PMB, combination with Levo (P. aeruginosa DR4877/07) | Fractional inhibitory concentration of peptide/PMB, combination with Tobra (P. aeruginosa DR4877/07) | Fractional inhibitory concentration of antibiotic, Chloarm combination (P. aeruginosa DR4877/07) | Fractional inhibitory concentration of antibiotic, Erythro combination (P. aeruginosa DR4877/07) | Fractional inhibitory concentration of antibiotic, Levo combination (P. aeruginosa DR4877/07) | Fractional inhibitory concentration of antibiotic, Tobra combination (P. aeruginosa DR4877/07) | Fractional inhibitory concentration of peptide/PMB, combination with Genta (P. aeruginosa ATCC 27853 [3]) | Fractional inhibitory concentration of antibiotic, Genta combination (P. aeruginosa ATCC 27853 [3]) |
| --- | --- | --- | --- | --- | --- | --- | --- | --- | --- | --- | --- | --- | --- | --- | --- | --- |
| CC(C)C[C@H](NC(=O)[C@H](CCCCN)NC(=O)[C@H](CCCNC(=N)N)NC(=O)CNC(=O)[C@@H](N)CCCNC(=N)N)C(=O)N[C@@H](CC(C)C)C(=O)N[C@@H](CCCNC(=N)N)C(=O)N[C@@H](CCCNC(=N)N)C(=O)NCCCC[C@H](NC(=O)[C@H](CCCNC(=N)N)NC(=O)[C@H](CCCNC(=N)N)NC(=O)[C@H](CC(C)C)NC(=O)[C@H](CC(C)C)NC(=O)[C@H](CCCCN)NC(=O)[C@H](CCCNC(=N)N)NC(=O)CNC(=O)[C@@H](N)CCCNC(=N)N)C(=O)N[C@@H](CCCCN)C(=O)O (I: H-RGRKLLRRKK-OH / II: H-RGRKLLRR; amide I:9-II:C; N-terminus and C-terminus assumed) | 2.7 µM | 1.47 ± 0.02 µM | 2.7 µM | 5.3 µM | 17.5 ± 0.4 µM | 5.3 µM | 0.25 | (0.5,0.5) | 0.5 | (0.25,0.25) | 0.13 | (0.5,0.5) | 0.06 | (0.25,0.25) | (0.25,0.25) | (0.25,0.25) |
| N=C(N)NCCC[C@H](NC(=O)CNC(=O)[C@@H](N)CCCNC(=N)N)C(=O)N[C@@H](CCCCN)C(=O)N[C@@H](Cc1c[nH]c2ccccc12)C(=O)N[C@@H](Cc1c[nH]c2ccccc12)C(=O)N[C@@H](CCCNC(=N)N)C(=O)N[C@@H](CCCNC(=N)N)C(=O)NCCCC[C@H](NC(=O)[C@H](CCCNC(=N)N)NC(=O)[C@H](CCCNC(=N)N)NC(=O)[C@H](Cc1c[nH]c2ccccc12)NC(=O)[C@H](Cc1c[nH]c2ccccc12)NC(=O)[C@H](CCCCN)NC(=O)[C@H](CCCNC(=N)N)NC(=O)CNC(=O)[C@@H](N)CCCNC(=N)N)C(=O)N[C@@H](CCCCN)C(=O)O (I: H-RGRKWWRRKK-OH / II: H-RGRKWWRR; amide I:9-II:C; N-terminus and C-terminus assumed) | 9.5 µM | 6.8 ± 0.12 µM | 9.5 µM | 9.5 µM | 31.1 ± 4.6 µM | 19 µM | 0.5 | (0.5,0.5) | 0.5 | 0.5 | 0.13 | (0.5,0.5) | 0.25 | 0.25 | 0.5 | 0.06 |
| N=C(N)NCCC[C@H](NC(=O)CNC(=O)[C@@H](N)CCCNC(=N)N)C(=O)N[C@@H](CCCCN)C(=O)N[C@@H](Cc1ccc(O)cc1)C(=O)N[C@@H](Cc1ccc(O)cc1)C(=O)N[C@@H](CCCNC(=N)N)C(=O)N[C@@H](CCCNC(=N)N)C(=O)NCCCC[C@H](NC(=O)[C@H](CCCNC(=N)N)NC(=O)[C@H](CCCNC(=N)N)NC(=O)[C@H](Cc1ccc(O)cc1)NC(=O)[C@H](Cc1ccc(O)cc1)NC(=O)[C@H](CCCCN)NC(=O)[C@H](CCCNC(=N)N)NC(=O)CNC(=O)[C@@H](N)CCCNC(=N)N)C(=O)N[C@@H](CCCCN)C(=O)O (I: H-RGRKYYRRKK-OH / II: H-RGRKYYRR; amide I:9-II:C; N-terminus and C-terminus assumed) | 4.5 µM | 2.5 ± 0.04 µM | 4.5 µM | 4.5 µM | 21.9 ± 0.2 µM | 9.0 µM | 0.25 | 0.5 | 0.5 | 0.25 | 0.13 | 0.06 | 0.25 | 0.13 | (0.25,0.25) | (0.25,0.25) |
